“And” between values parts separate entries of the source, which are not always exact repeats. Equal values may be shown once. Inconclusive results and toxic doses are left out. Cut-off read from the data, not from the text of the source: active = T/C of 150% or more; inactive = T/C below 125%.
Test system: L1210 leukemia ip in BDF1 mice, survival T/C
Test: NCI In Vivo Anticancer Drug Screen. Data for tumor model L1210 Leukemia (intraperitoneal) in B6D2F1 (BDF1) mice
Settings: endpoint: mean survival time, higher = longer survival
In short: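 Tumor cells were implanted, animals were treated, and survival was followed. The result divides the treated measurement by the vehicle-control measurement.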

[1] = dose: 12.5 mg/kg/injection, schedule: Q01DX009 (ip), vehicle: Klucel (hydroxypropylcellulose) (HPC)
[2] = dose: 25.0 mg/kg/injection, schedule: Q01DX009 (ip), vehicle: Klucel (hydroxypropylcellulose) (HPC)
[3] = dose: 50.0 mg/kg/injection, schedule: Q01DX009 (ip), vehicle: Klucel (hydroxypropylcellulose) (HPC)
[4] = dose: 100.0 mg/kg/injection, schedule: Q04DX003 (ip), vehicle: saline with Tween-80
[5] = dose: 200.0 mg/kg/injection, schedule: Q04DX003 (ip), vehicle: saline with Tween-80
[6] = dose: 50.0 mg/kg/injection, schedule: Q01DX009 (ip), vehicle: saline with Tween-80
[7] = dose: 100.0 mg/kg/injection, schedule: Q01DX009 (ip), vehicle: saline with Tween-80
[8] = dose: 200.0 mg/kg/injection, schedule: Q01DX009 (ip), vehicle: saline with Tween-80
[9] = dose: 100.0 mg/kg/injection, schedule: Q04DX002 (ip), vehicle: Klucel (hydroxypropylcellulose) (HPC)
[10] = dose: 200.0 mg/kg/injection, schedule: Q04DX002 (ip), vehicle: Klucel (hydroxypropylcellulose) (HPC)
[11] = dose: 100.0 mg/kg/injection, schedule: Q01DX001 (ip), vehicle: saline
[12] = dose: 100.0 mg/kg/injection, schedule: Q01DX009 (ip), vehicle: Klucel (hydroxypropylcellulose) (HPC)
[13] = dose: 100.0 mg/kg/injection, schedule: Q04DX003 (ip), vehicle: Klucel (hydroxypropylcellulose) (HPC)
[14] = dose: 200.0 mg/kg/injection, schedule: Q01DX001 (ip), vehicle: saline
[15] = dose: 200.0 mg/kg/injection, schedule: Q01DX009 (ip), vehicle: Klucel (hydroxypropylcellulose) (HPC)
[16] = dose: 200.0 mg/kg/injection, schedule: Q04DX003 (ip), vehicle: Klucel (hydroxypropylcellulose) (HPC)
[17] = dose: 400.0 mg/kg/injection, schedule: Q01DX001 (ip), vehicle: saline
[18] = dose: 400.0 mg/kg/injection, schedule: Q01DX009 (ip), vehicle: Klucel (hydroxypropylcellulose) (HPC)
[19] = dose: 400.0 mg/kg/injection, schedule: Q04DX003 (ip), vehicle: Klucel (hydroxypropylcellulose) (HPC)

Measured: T/C

NC(N)=Nc1ccc(C(=O)Oc2ccc(OC(=O)c3cccc(N=C(N)N)c3)cc2)cc1
inactive: dose: 50.0 mg/kg/injection, schedule: Q01DX009 (ip), vehicle: water 96 % of control | dose: 50.0 mg/kg/injection, schedule: Q04DX003 (ip), vehicle: water 90 % of control | dose: 100.0 mg/kg/injection, schedule: Q01DX009 (ip), vehicle: water 98 % of control | dose: 100.0 mg/kg/injection, schedule: Q04DX003 (ip), vehicle: water 93 % of control and 97 % of control | dose: 200.0 mg/kg/injection, schedule: Q01DX009 (ip), vehicle: water 92 % of control | dose: 200.0 mg/kg/injection, schedule: Q04DX003 (ip), vehicle: water 98 % of control and 100 % of control | dose: 400.0 mg/kg/injection, schedule: Q04DX003 (ip), vehicle: water 93 % of control and 95 % of control

O=C(NNc1ccccc1)OCCCl
inactive: [1] 95 % of control | [2] 101 % of control | [3] 107 % of control

Nc1c(Br)cc(Br)c2ccccc12
inactive: dose: 100.0 mg/kg/injection, schedule: Q01DX009 (ip), vehicle: acetone 93 % of control | [4] 97 % of control | dose: 200.0 mg/kg/injection, schedule: Q01DX009 (ip), vehicle: acetone 91 % of control | [5] 92 % of control | dose: 400.0 mg/kg/injection, schedule: Q01DX009 (ip), vehicle: acetone 93 % of control | dose: 400.0 mg/kg/injection, schedule: Q04DX003 (ip), vehicle: saline with Tween-80 97 % of control

CCn1c(C)nccc1=O
inactive: dose: 37.5 mg/kg/injection, schedule: Q01DX001 (ip), vehicle: saline 101 % of control | dose: 75.0 mg/kg/injection, schedule: Q01DX001 (ip), vehicle: saline 101 % of control | dose: 150.0 mg/kg/injection, schedule: Q01DX001 (ip), vehicle: saline 100 % of control

Cc1ccccc1[P+](Cc1ccccc1)(c1ccccc1)c1ccccc1C
inactive: dose: 15.0 mg/kg/injection, schedule: Q01DX001 (ip), vehicle: saline 104 % of control

C/C=C\C1OC1(C)c1cc(=O)c2c(C)cc3c(c2o1)C(=O)c1c(O)c(C2CC(C)(N(C)C)C(OC(C)=O)C(C)O2)cc(C2CC(N(C)C)C(O)C(C)O2)c1C3=O (configuration not stated)
inactive: dose: 0.35 mg/kg/injection, schedule: Q01DX009 (ip), vehicle: saline with Tween-80 103 % of control | dose: 0.7 mg/kg/injection, schedule: Q01DX009 (ip), vehicle: saline with Tween-80 102 % of control | dose: 1.4 mg/kg/injection, schedule: Q01DX009 (ip), vehicle: saline with Tween-80 96 % of control | dose: 2.8 mg/kg/injection, schedule: Q01DX009 (ip), vehicle: saline with Tween-80 88 % of control

NC(=O)/C(=C\c1ccc([N+](=O)[O-])o1)c1ccco1
inactive: dose: 55.0 mg/kg/injection, schedule: Q01DX Z (ip), vehicle: methylcellulose (MC) 93 % of control | dose: 83.0 mg/kg/injection, schedule: Q01DX Z (ip), vehicle: methylcellulose (MC) 98 % of control | dose: 125.0 mg/kg/injection, schedule: Q01DX Z (ip), vehicle: methylcellulose (MC) 100 % of control

COc1nc(SC)nc2[nH]ccc12
inactive: dose: 75.0 mg/kg/injection, schedule: Q01DX001 (ip), vehicle: other 103 % of control | dose: 150.0 mg/kg/injection, schedule: Q01DX001 (ip), vehicle: other 100 % of control | dose: 300.0 mg/kg/injection, schedule: Q01DX001 (ip), vehicle: other 97 % of control

c1c[nH]c(N=Nc2ccc(-c3ccc(N=Nc4ncc[nH]4)cc3)cc2)n1
inactive: [6] 97 % of control | [7] 90 % of control | [8] 90 % of control

OC1CCc2c(Cl)sc(Cl)c21 (configuration not stated)
inactive: dose: 400.0 mg/kg/injection, schedule: Q01DX001 (ip), vehicle: saline with Tween-80 98 % of control

O=C(/C=C\c1ccc(Cl)cc1)c1ccccc1
inactive: [7] 91 % of control | [9] 89 % of control | dose: 100.0 mg/kg/injection, schedule: Q04DX002 (ip), vehicle: gum acacia 98 % of control | [8] 91 % of control | [10] 96 % of control | dose: 200.0 mg/kg/injection, schedule: Q04DX002 (ip), vehicle: gum acacia 95 % of control | dose: 400.0 mg/kg/injection, schedule: Q01DX009 (ip), vehicle: saline with Tween-80 86 % of control | dose: 400.0 mg/kg/injection, schedule: Q04DX002 (ip), vehicle: Klucel (hydroxypropylcellulose) (HPC) 96 % of control | dose: 400.0 mg/kg/injection, schedule: Q04DX002 (ip), vehicle: gum acacia 91 % of control

CC1(C)SC(C)(C)N(C=O)C1C(=O)O (configuration not stated)
inactive: [11] 94 % of control | [12] 93 % of control | [13] 105 % of control | [14] 94 % of control | [15] 94 % of control | [16] 95 % of control | [17] 110 % of control | [18] 96 % of control | [19] 97 % of control

O=C(O)C(=O)Nc1ncn[nH]1
inactive: dose: 6.25 mg/kg/injection, schedule: Q01DX009 (ip), vehicle: Klucel (hydroxypropylcellulose) (HPC) 104 % of control | dose: 12.5 mg/kg/injection, schedule: Q01DX005 (ip), vehicle: Klucel (hydroxypropylcellulose) (HPC) 102 % of control | [1] 96 % of control and 104 % of control | [2] 100 % of control and 104 % of control | dose: 50.0 mg/kg/injection, schedule: Q01DX005 (ip), vehicle: Klucel (hydroxypropylcellulose) (HPC) 105 % of control and 106 % of control | [3] 107 % of control and 114 % of control | [9] 96 % of control | [10] 98 % of control

CC(N(N=O)c1ccccc1)S(=O)(=O)O (configuration not stated)
inactive: [11] 104 % of control | dose: 100.0 mg/kg/injection, schedule: Q01DX009 (ip), vehicle: saline 92 % of control | [14] 96 % of control | dose: 200.0 mg/kg/injection, schedule: Q01DX009 (ip), vehicle: saline 99 % of control | [17] 98 % of control

S=C(NCc1ccncc1)Nc1ccccc1Cl
inactive: [12] 101 % of control | [15] 95 % of control | [18] 98 % of control

O=C(O)Cc1ccc2c3c(ccc([N+](=O)[O-])c13)CC2
inactive: [6] 95 % of control | [7] 93 % of control | [4] 96 % of control | [8] 90 % of control | [5] 96 % of control

CC[n+]1cccc2ccccc21
inactive: [11] 97 % of control

CCCCCCCCCCCCCCCCn1/c(=N/N=C/c2ccccc2S(=O)(=O)O)sc2ccccc21
inactive: [12] 106 % of control | [13] 113 % of control | [15] 112 % of control | [16] 106 % of control | [18] 105 % of control | [19] 116 % of control

Cc1cs[n+](C)c1
inactive: [11] 94 % of control | [14] 97 % of control

O=C(O)c1c[nH]c(=O)c([N+](=O)[O-])c1
inactive: dose: 50.0 mg/kg/injection, schedule: Q04DX003 (ip), vehicle: Klucel (hydroxypropylcellulose) (HPC) 97 % of control | [13] 91 % of control | [16] 92 % of control

CC(=O)NCCCCC(=O)c1ccccc1
inactive: [7] 102 % of control | [8] 100 % of control
